Results: patent US20070093436A1, “Drop1, a novel marker for carcinogenesis” (Deutsches Kresforschungszentrum Stiftung Des Offentlichen …, priority 2003, published 2007)

Assays:
Assay type in all cases: cell-based, human
[1] = system: Drop1 mRNA in cell lines exhibiting a low level of Drop1 (GG and M130); experiment: Treatment of cell lines exhibiting a low level of Drop1 with demethylating agents
Experimental: (§1) Treatment of cells with methyltransferase inhibitors was carried out as described by Widschwendter et al., J. Nat. Cancer Inst. 92 (2000), 826-832). All-trans-retinoic acid (ATRA) and 5-aza-deoxycytidine (Aza-CdR) were from Sigma Chemical Co. (St. Louis, Mo.). 1 mM solutions were prepared in dimethyl sulfoxide and diluted in culture medium. Cells were incubated either for 5 days, with […] Aza-CdR, for 24 h with […], or for 5 days with […] Aza-CdR followed by 24 h with 1 mM ATRA, or left untreated. They were detached with trypsin (0.05%)-EDTA (0.02%) in Dulbecco's phosphate-buffered saline (PBS), washed, and pelleted.
(§2) The possibility that promoter methylation might downregulate Drop1 was investigated.

[2] = system: Drop1 expression in SKOV-3 cells; experiment: Treatment of cells with methyltransferase inhibitors, Drop1 expression by quantitative PCR
Experimental: (§3) The differential expression was validated by quantitative PCR and analyzed in the Agilent 2100 Bioanalyzer (Agilent Technologies, Waldbronn, Germany, PC Hewlett packard, Vectra VL, Hewlett packard, Boeblingen; Software Agilent 2100 Bio Sizing 1.3, Agilent Technologies, Waldbronn) or by semi-quantitative analysis of the resulting cDNA on a 2% agarose gel.
(§4) • 1 μl cDNA of the 20 μl RT-mixture (corresponding to 0.5 ng of cDNA); • 1 μl Drop1 Upper primer (5′ […] ATA 3′ corresponding to positions 8255-8278 in exon 53), 20 μM; • 1 μl Drop1 Lower primer (Lower primer 5′ […] 3′, complementary to positions 8500-8473 in exon 55), 20 μM; • 5 μl cDNA-PCR reaction buffer, 10×; • 1 μl dNTP-Mix, 10 mM; • 1 μl advantage-cDNA-polymerase mix, 50×;
(§5) Steps 1 to 3 were repeated 34 to 46 times. After individual cycles in that range, aliquots were removed and run on a gel. The amount of PCR-product from the first cycle producing a visible band of 246 bp was then quantitated using the Agilent system and an intercalating dye to detect double-stranded DNA. Under these conditions, quantitative PCR detected Drop1 plus enaptin, yet not cpg2, and the various nexins.
as §1, §2

[3] = system: Drop1 expression in GG cells; experiment: as above
Experimental: as §3, §4, §5, §1, §2

[4] = system: Drop1 expression in M130 cells; experiment: as above
Experimental: as §3, §4, §5, §1, §2

[5] = 5 days 2.5 mM Aza-CdR, 24 h 1 mM ATRA, or 5 days Aza-CdR followed by 24 h ATRA

CC1=C(/C=C/C(C)=C/C=C/C(C)=C/C(=O)O)C(C)(C)CCC1 [ATRA, all-trans-retinoic acid]
Increase of Drop1 mRNA [1]: an order of magnitude
Increase of Drop1 expression ([2]; SKOV-3, a cell line with a physiological level of Drop1): No increase of expression
Expression of downregulated Drop1 in cells treated with inhibitors of gene methylation ([2]; SKOV-3 cells, 5 days 2.5 mM Aza-CdR, 24 h 1 mM ATRA, or 5 days Aza-CdR followed by 24 h ATRA): 2.2 × 10^−4
Increase of Drop1 expression versus cells in medium [3]: 2.5 fold
Expression of downregulated Drop1 in cells treated with inhibitors of gene methylation [3, 5]: 1.3 × 10^−4
Increase of Drop1 expression versus cells in medium [4]: 18 fold
Expression of downregulated Drop1 in cells treated with inhibitors of gene methylation [4, 5]: 1.8 × 10^−2
